# In patent US20110268794A1, “METHODS AND MATERIALS FOR DELIVERING BILE ACIDS” (priority 2009, published 2011):
# Experiments:
# Assay type in all cases: in vivo, human
# healthy volunteers [1] = assay: Adverse events, healthy volunteers (Example 1); conditions: n=20
# Description: This was a double-blind, placebo-controlled, randomized study evaluating the effects of sodium chenodeoxycholate (CDC) or placebo orally administered once daily for four days in healthy volunteers. An independent statistician generated the randomization code. Clinical and laboratory study personnel were blinded throughout the study until data were locked and analyzed. Safety monitoring was conducted throughout the study. Three groups (n=20 each) were randomized to oral placebo, 500 mg or 1000 mg CDC daily (in pH-sensitive, methacrylate-coated capsules), each for a period of 4 days.
# healthy volunteers [2] = assay: Daily stool diaries (bowel function), healthy volunteers (Example 1); conditions: for Ease of passage (scale 1-7) / Stool frequency per day / Stool consistency by Bristol Stool Form Scale: N = 20, mean ± SEM; for Stool frequency per day: overall p < 0.001; for Stool consistency by Bristol Stool Form Scale: scale 1 hard lumps to 7 watery
# Description: This was a double-blind, placebo-controlled, randomized study evaluating the effects of sodium chenodeoxycholate (CDC) or placebo orally administered once daily for four days in healthy volunteers. Three groups (n=20 each) were randomized to oral placebo, 500 mg or 1000 mg CDC daily (in pH-sensitive, methacrylate-coated capsules), each for a period of 4 days. During at least 3 days of the baseline period and the 4 days of treatment period, each patient noted each bowel movement with the exact time and with the description of stool consistency according to the BSFS (ranging from 1=“hard lumps” to 7=“watery”), and the ease of passage (ranging from 1=“manual disimpaction” to 7=“incontinence”), and answered whether or not they felt they had completely emptied their bowels (1=“yes” and 0=“no”) (Bouras et al., Gastroenterology, 120:354-60 (2001)). The diaries contained values for stool consistency, stool frequency, ease of passage and sense of completely emptying their bowels.
# female IBS-C patients = assay: Bowel function by daily questionnaires, female IBS-C patients (Example 2)
# Description: The following study was performed to evaluate the effects of ileocolonic delivery of sodium chenodeoxycholate (CDC) on gastrointestinal (GI) and colonic transit and bowel function in constipation-predominant irritable bowel syndrome (IBS-C). A double-blind, placebo-controlled study evaluated effects of once-daily CDC for 4 days in 36 female IBS-C patients (mean age 41.80±1.62 y). Patients were randomized to oral placebo, 500 mg or 1000 mg CDC delivered to the ileocolonic region in pH-sensitive, methacrylate-coated capsules. Fasting serum 7α-hydroxy-4-cholesten-3-one (7αC4) was measured to assess for baseline abnormalities in bile acid synthesis. […] Treatment effects were compared by ANCOVA with BMI as a covariate, and each CDC dose against placebo by Dunnett's test.
# [3] = CDC 500 mg once daily 4 days, N = 11, mean ± SEM
# [4] = CDC 1000 mg once daily 4 days, N = 12, mean ± SEM
compound,measurement,setting,value
"C[C@H](CCC(=O)O)[C@H]1CC[C@H]2[C@@H]3[C@H](O)C[C@@H]4C[C@H](O)CC[C@]4(C)[C@H]3CC[C@]12C [CDC, sodium chenodeoxycholate]",Percent of participants with URI,healthy volunteers [1]; CDC 500 mg once daily 4 days,0%
same,Percent of participants with diarrhea,healthy volunteers [1]; CDC 500 mg once daily 4 days,40%
same,Percent of participants with gas,healthy volunteers [1]; CDC 500 mg once daily 4 days,5%
same,Percent of participants with headache,healthy volunteers [1]; CDC 500 mg once daily 4 days,25%
same,Percent of participants with loose stools,healthy volunteers [1]; CDC 500 mg once daily 4 days,15%
same,Percent of participants with lower abdo bloating,healthy volunteers [1]; CDC 500 mg once daily 4 days,5%
same,Percent of participants with lower abdo pain/cramps,healthy volunteers [1]; CDC 500 mg once daily 4 days,15%
same,Percent of participants with muscle aches,healthy volunteers [1]; CDC 500 mg once daily 4 days,5%
same,Percent of participants with nausea,healthy volunteers [1]; CDC 500 mg once daily 4 days,5%
same,Percent of participants with sensation of warmth,healthy volunteers [1]; CDC 500 mg once daily 4 days,5%
same,Percent of participants with sweating,healthy volunteers [1]; CDC 500 mg once daily 4 days,5%
same,"Percent of participants dizzy, light-headed",healthy volunteers [1]; CDC 1000 mg once daily 4 days,5%
same,Percent of participants with URI,healthy volunteers [1]; CDC 1000 mg once daily 4 days,10%
same,Percent of participants with diarrhea,healthy volunteers [1]; CDC 1000 mg once daily 4 days,75%
same,Percent of participants with gas,healthy volunteers [1]; CDC 1000 mg once daily 4 days,5%
same,Percent of participants with headache,healthy volunteers [1]; CDC 1000 mg once daily 4 days,25%
same,Percent of participants with loose stools,healthy volunteers [1]; CDC 1000 mg once daily 4 days,20%
same,Percent of participants with lower abdo bloating,healthy volunteers [1]; CDC 1000 mg once daily 4 days,0%
same,Percent of participants with lower abdo pain/cramps,healthy volunteers [1]; CDC 1000 mg once daily 4 days,75%
same,Percent of participants with muscle aches,healthy volunteers [1]; CDC 1000 mg once daily 4 days,0%
same,Percent of participants with nausea,healthy volunteers [1]; CDC 1000 mg once daily 4 days,20%
same,Percent of participants with sensation of warmth,healthy volunteers [1]; CDC 1000 mg once daily 4 days,5%
same,Percent of participants with sweating,healthy volunteers [1]; CDC 1000 mg once daily 4 days,5%
same,Overall treatment effect on sense of incomplete evacuation,"healthy volunteers [2]; 500 mg or 1000 mg once daily 4 days vs placebo, healthy volunteers, p=0.02",significant overall treatment effects
same,Ease of passage (scale 1-7),healthy volunteers [2]; CDC 500 mg once daily 4 days,4.1 ± 0.06
same,Stool frequency per day,healthy volunteers [2]; CDC 500 mg once daily 4 days,1.50 ± 0.18 per day
same,Stool consistency by Bristol Stool Form Scale,healthy volunteers [2]; CDC 500 mg once daily 4 days,4.29 ± 0.19
same,Ease of passage (scale 1-7),healthy volunteers [2]; CDC 1000 mg once daily 4 days,4.3 ± 0.06
same,Stool frequency per day,healthy volunteers [2]; CDC 1000 mg once daily 4 days,2.01 ± 0.15 per day
same,Stool consistency by Bristol Stool Form Scale,healthy volunteers [2]; CDC 1000 mg once daily 4 days,4.80 ± 0.15
same,Stool consistency (Bristol Scale),female IBS-C patients; [3],3.58 ± 0.33
same,Stool frequency per day,female IBS-C patients; [3],1.22 ± 0.19 per day
same,Stool consistency (Bristol Scale),female IBS-C patients; [4],3.47 ± 0.23
same,Stool frequency per day,female IBS-C patients; [4],1.27 ± 0.13 per day
